Data reported in patent US8895509B2, “MIR-200 family induces mesenchymal-to-epithelial transition (MET) in ovarian cancer cells” (Georgia Tech Research Corporation, priority 2010, dated 2014).
“Also recorded” adds a separate entry of the source.

Columns and labels:
Format in all cases: cell-based, human
HEY cells [1] = assay: morphology of HEY cells after microRNA transfection; settings: transfected with 30 nM miRNA, vs negative control
Text: The OVCAR3 cell line was originally established from the ascites of a patient with poorly differentiated papillary epithelial OC [Hamilton et al., Cancer Res 1985, 45:3668-76]. The OVCAR3 cell line was obtained from the American Type Culture Collection (Manassas, Va.). The HEY cell line was derived from a patient with moderately differentiated papillary cystadenocarcinoma of the ovary [Buick et al., Cancer Res 1985, 45:3668-76]. The HEY cell line was kindly provided by Gordon Mills, Department of Molecular Therapeutics, University of Texas, MD Anderson Cancer Center.
(§1) 6×10^4 cells per well were seeded in 24-well plates. After 24 h, cells were transfected with 30 nM of miR-429 and miR-320 miRNA oligonucleotides (Ambion, Austin, Tex.) using Lipofectamine 2000 reagent (Invitrogen, Carlsbad, Calif.). The Ambion Pre-miRNA Precursor Negative Control was used as a control. Three days after transfection, cells were split and transfected again. This process was repeated every 3 days until 21 days when cells were assayed for response.

HEY cells [2] = assay: anchorage-independent growth in soft agar; settings: 8 days in soft agar, vs negative control
Experimental: Anchorage independent growth was examined using Cell Biolab's (San Diego, Calif.) soft agar kit according to the manufacturer's protocol. Briefly, 5,000 cells were grown in a 0.3% low melting temperature agar matrix. After 8 days of incubation, the agar matrix was solubilized, cells stained and absorbance recorded at 520 nm. The optical density (OD) was measured in a 96-well plate reader using a 485/520 nm filter set.
Anchorage-independent growth is another characteristic of mesenchymal cells and is considered a hallmark of cellular transformation [Takeyama et al., Cancer Lett 2010; 96:216-24]. We tested anchorage-independent growth of HEY cells transfected with miR-429 relative to controls.

HEY cells [3] = assay: qRT-PCR of EMT marker mRNAs in transfected HEY cells
Experimental: as §1
Total RNA was extracted from cells using the miRVana miRNA isolation kit (Ambion). MicroRNA expression was carried our using TaqMan microRNA assays (Applied Biosystems, Carlsbad, Calif.) with human U6 as the endogenous control. For mRNA quantitation, RNA (4.0 μg) was reversed transcribed into cDNA using the Superscript III First-strand Synthesis System (Invitrogen) according to the manufacturer's instructions using sequence specific primers. Real-time PCR was performed using Power SYBR Green PCR Master Mix (Bio-Rad, Hercules, Calif.) and data normalized to glyceraldehydes-3-phosphate-dehydrogenase (GAPDH). Each transfection experiment was carried out in triplicate with 3 PCR reactions performed per transfection. The PCR results were analyzed by 1-way Analysis of Variance (ANOVA) and the Newman-Keuls-Student t test. A p value of <0.05 was considered significant.

With “miR-429: miR-200 family member; mature miRNA UAAUACUGUCUGGUAAAACCGU (SEQ ID NO: 6); miRNA oligonucleotide (Ambion) transfected at 30 nM (listed as RNA, chemistry not given here; listed as Homo sapiens) [miR-200 family member; miRNA oligonucleotide (Ambion) transfected at 30 nM]” the “morphological change of HEY cells” value (HEY cells [1]) was “morphological change from an elongated, spindle-shaped, mesenchymal phenotype to a more rounded, epithelial-like phenotype; also recorded: change from an elongated mesenchymal-like morphology to a rounded epithelial-like morphology”, the anchorage-independent growth (HEY cells [2]) was “significant suppression; also recorded: significantly reduced” and the “levels of E-cadherin mRNA” value (HEY cells [3]) was “concomitant increase; also recorded: significantly higher”. For the same substance, the “levels of FN1 (fibronectin) mRNA” value (HEY cells [3]) was “No significant difference”, the “levels of N-cadherin mRNA” value (HEY cells [3]) was “No significant difference” and the “levels of VIM (vimentin) mRNA” value (HEY cells [3]) was “No significant difference”. The “levels of ZEB1 mRNA” value (HEY cells [3]) was “significant decrease; also recorded: significantly lower” and the “levels of ZEB2 mRNA” value (HEY cells [3]) was “significant decrease; also recorded: significantly lower”.
